Experimental data: article PMC9463526 (Journal of Pharmaceutical Analysis, 2022)
Where two headings read alike, the source gives them in different places.

How the values were obtained:
[1] = Equilibrium dialysis, fraction unbound in plasma; format: in vitro ADME, human; settings: for fraction unbound at 16 h: pH 7.4, 16 h equilibrium dialysis
In short: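 Human plasma dialysed against PBS pH 7.4 across a 10 kDa regenerated cellulose membrane, with equilibrium time optimized over 2–24 h at 20 and 200 nM. fu taken as post-dialysis buffer/plasma concentration ratio; triplicates, at least three repeats, recovery checked.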

[2] = Equilibrium dialysis, fraction unbound in brain homogenate; format: in vitro ADME, human
[3] = Levels in intraoperatively collected CSF of GBM patients; format: in vivo; settings: human, po, five GBM patients, oral LY3214996 200 mg once daily and abemaciclib 150 mg twice daily for 5 days, intraoperative CSF
Procedure: Blank brain and clinical brain tumor tissue homogenates were prepared at 1:9 (m/V) ratio with PBS. The samples were homogenized at a speed of 6.00 m/s for 40 s for three cycles using a Bead Ruptor Elite homogenizer (Omni International, Kennesaw, GA, USA). Plasma was used as a surrogate matrix when preparing calibration curves for brain and brain tumor homogenates and CSF as well as for the PBS fraction after sample dialysis. To minimize matrix differences, all plasma samples were spiked with PBS, while all non-plasma samples were spiked with plasma. Extraction of the analyte and IS was facilitated by protein precipitation using methanol-containing IS precipitation solution. Samples (70 μL) spiked with PBS or plasma were precipitated using 400 μL of IS precipitation solution. After centrifugation at 12,000 r/min for 10 min at 4 °C, the supernatant was transferred for LC-MS/MS analysis.
The validated bioanalytical method was employed to investigate analytes pharmacokinetics in the plasma, brain tumor, and CSF in GBM patients (ClinicalTrials.gov identifier: NCT04391595). The protocol was reviewed and approved by the Institutional Review Board of the Barrow Neurological Institute, St. Joseph's Hospital and Medical Center (Phoenix, AZ, USA). All patients enrolled in the trial provided written informed consent. […] Blood, CSF, and GBM tissue (including gadolinium-contrast enhancing and non-enhancing regions) samples were obtained intra-operatively from each patient on the […] on the planned operation day. Blood was centrifuged at 4 °C and 3,000 r/min for 10 min; plasma was subsequently collected. Brain tumors were resected 7–9 h after the last dose was administered. Once resected, the tissue samples were rinsed with PBS, paper dried, and freshly frozen in liquid nitrogen. The samples were then stored at −80 °C in a freezer for later analysis.

[4] = Analyte stability in human plasma; format: physicochemical; settings: for Freeze-thaw stability, Accuracy / Freeze-thaw stability, Mean concentration / Freeze-thaw stability, Difference: 3 cycles; for Freeze-thaw stability, Difference / Benchtop stability, Difference / Processed sample stability, Difference / Autosampler stability (5 °C), Difference / Long-term stability (−20 °C), Difference: vs freshly processed QC; for Benchtop stability, Accuracy / Benchtop stability, Mean concentration / Benchtop stability, Difference: 19 h; for Processed sample stability, Accuracy / Processed sample stability, Mean concentration / Processed sample stability, Difference: 23 h; for Autosampler stability (5 °C), Accuracy / Autosampler stability (5 °C), Mean concentration / Autosampler stability (5 °C), Difference: 112 h; for Long-term stability (−20 °C), Accuracy / Long-term stability (−20 °C), Mean concentration / Long-term stability (−20 °C), Difference: 27 days
Procedure: The stability of the analytes was studied under various storage and processing conditions. […] Short- and long-term stability studies of all analytes were conducted in human blank plasma and brain homogenate under several storage conditions. Analyte stability in biological matrices was analyzed using freshly prepared calibration standards and QC samples. The percentage difference between the stability and freshly processed QC was also assessed. Re-injection reproducibility was evaluated within the sample stability period in the autosampler. Analytes were considered stable if the accuracy at each level was ±15.0% of the nominal value. Additionally, the difference from corresponding comparison QC samples must be within ±15.0%.

[5] = Analyte stability in brain homogenate; format: physicochemical, human; settings: for Freeze-thaw stability, Accuracy / Freeze-thaw stability, Mean concentration / Freeze-thaw stability, Difference: 3 cycles; for Freeze-thaw stability, Difference / Benchtop stability, Difference / Processed sample stability, Difference / Autosampler stability (5 °C), Difference / Long-term stability (−20 °C), Difference: vs freshly processed QC; for Benchtop stability, Accuracy / Benchtop stability, Mean concentration / Benchtop stability, Difference: 6 h; for Processed sample stability, Accuracy / Processed sample stability, Mean concentration / Processed sample stability, Difference: 22 h; for Autosampler stability (5 °C), Accuracy / Autosampler stability (5 °C), Mean concentration / Autosampler stability (5 °C), Difference: 96 h
In short: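 Brain homogenate QC samples were held under a range of short- and long-term storage conditions, then measured using freshly prepared calibration standards and QCs. Each stability sample was compared with freshly processed QC as a percentage difference. Acceptance required accuracy within ±15.0% of nominal at every level and a difference from comparison QC samples within ±15.0%.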

## Cn1nccc1Nc1nccc(-c2cc3c(s2)C(C)(C)N(CCN2CCOCC2)C3=O)n1 [LY3214996]
[1]; human, plasma of five GBM patients, read-out: Fraction unbound (fu), Plasma (patients)
  fraction unbound at 16 h: 0.406
[1]; pooled human plasma spiked at 20 and 200 nM, read-out: Fraction unbound (fu), Plasma (pooled)
  fraction unbound at 16 h: 0.372
[1]; pooled human plasma
  Plasma protein binding (in words): modest plasma protein binding
[2]; pH 7.4, human brain homogenate spiked at 20 and 200 nM, 16 h equilibrium dialysis, read-out: Fraction unbound (fu), Brain
  fraction unbound at 16 h: 0.065
[2]; spiked pooled human plasma vs human brain homogenate
  Plasma protein binding compared to binding to brain tissue components (ratio): at least 5.5 fold
[3]; read-out: Level in CSF (range)
  concentration at 6 day (intra-operative): 49.7 to 118 nM
[3]; read-out: Median level in CSF
  concentration at 6 day (intra-operative): 95.5 nM
[4]; HQC 400.0 nM
  Freeze-thaw stability, Accuracy: 100.6%
  Freeze-thaw stability, Mean concentration: 402.5 nM
  Freeze-thaw stability, Difference: 3.2%
  Benchtop stability, Accuracy: 102.3%
  Benchtop stability, Mean concentration: 409.3 nM
  Benchtop stability, Difference: 2.8%
  Processed sample stability, Accuracy: 97.7%
  Processed sample stability, Mean concentration: 390.7 nM
  Processed sample stability, Difference: 2.2%
  Autosampler stability (5 °C), Accuracy: 95.4%
  Autosampler stability (5 °C), Mean concentration: 381.8 nM
  Autosampler stability (5 °C), Difference: 1.5%
  Long-term stability (−20 °C), Accuracy: 104.5%
  Long-term stability (−20 °C), Mean concentration: 418.1 nM
  Long-term stability (−20 °C), Difference: 3.4%
[4]; LQC 0.6 nM
  Freeze-thaw stability, Accuracy: 101.0%
  Freeze-thaw stability, Mean concentration: 0.606 nM
  Freeze-thaw stability, Difference: 5.3%
  Benchtop stability, Accuracy: 97.7%
  Benchtop stability, Mean concentration: 0.586 nM
  Benchtop stability, Difference: 3.2%
  Processed sample stability, Accuracy: 91.1%
  Processed sample stability, Mean concentration: 0.547 nM
  Processed sample stability, Difference: −3.4%
  Autosampler stability (5 °C), Accuracy: 92.5%
  Autosampler stability (5 °C), Mean concentration: 0.555 nM
  Autosampler stability (5 °C), Difference: 3.1%
  Long-term stability (−20 °C), Accuracy: 101.5%
  Long-term stability (−20 °C), Mean concentration: 0.609 nM
  Long-term stability (−20 °C), Difference: −2.2%
[5]; HQC 400.0 nM
  Freeze-thaw stability, Accuracy: 103.2%
  Freeze-thaw stability, Mean concentration: 412.9 nM
  Freeze-thaw stability, Difference: 1.1%
  Benchtop stability, Accuracy: 101.7%
  Benchtop stability, Mean concentration: 406.7 nM
  Benchtop stability, Difference: −1.5%
  Processed sample stability, Accuracy: 102.3%
  Processed sample stability, Mean concentration: 409.3 nM
  Processed sample stability, Difference: −0.9%
  Autosampler stability (5 °C), Accuracy: 105.2%
  Autosampler stability (5 °C), Mean concentration: 420.9 nM
  Autosampler stability (5 °C), Difference: 3.3%
[5]; LQC 0.6 nM
  Freeze-thaw stability, Accuracy: 101.4%
  Freeze-thaw stability, Mean concentration: 0.608 nM
  Freeze-thaw stability, Difference: −7.9%
  Benchtop stability, Accuracy: 110.2%
  Benchtop stability, Mean concentration: 0.661 nM
  Benchtop stability, Difference: 0.2%
  Processed sample stability, Accuracy: 112.3%
  Processed sample stability, Mean concentration: 0.674 nM
  Processed sample stability, Difference: 2.1%
  Autosampler stability (5 °C), Accuracy: 111.2%
  Autosampler stability (5 °C), Mean concentration: 0.667 nM
  Autosampler stability (5 °C), Difference: 4.4%
[5]; 39 days, HQC 400.0 nM
  Long-term stability (−20 °C), Mean concentration: 422.7 nM
  Long-term stability (−20 °C), Difference: 3.5%
[5]; 39 days, LQC 0.6 nM
  Long-term stability (−20 °C), Accuracy: 103.6%
  Long-term stability (−20 °C), Mean concentration: 0.622 nM
  Long-term stability (−20 °C), Difference: −5.9%
